Data on one substance can be found in patent publication US20070111258A1, “Compositions and methods for modulating the acute phase response” (priority 2005, published 2007).

The subject of the test is human CREBH. The experiment in a line: Cleavage of flag-tagged human CREBH stably expressed in H2.35 cells (Western blot, cell fractionation). In kind it is cell-based. The procedure:
FIG. 3 depicts the effects of ER stress on CREBH: proteolytic cleavage of CREBH to release its N-terminal fragment that translocates into the nucleus. (A) Illustration of transmembrane domains and lumenal domains of SREBP, ATF6, Luman and CREBH in human (hs), mouse (mm). The conserved residues for S1P and S2P recognition are highlighted. (B) Cleavage of CREBH in H2.35 cells under different stimuli. H2.35 cells stably expressing flag-tagged human CREBH were treated with 0.5 μg/ml BFA, 20 ng/ml TNFα, 40 ng/ml IL6, 5 mM DTT, 0.5 μM Tg or 5 μg/ml Tm for 8 hours. Untransfected H2.35 cells (lane 1) and the H2.35 cells that stably express human CREBH (lane 2) were cultured under normal conditions as control. Total cell lysates were collected for Western blot analysis by using an anti-flag monoclonal antibody (upper panel). Levels of α-actin were determined for control of protein loading (lower panel). (C) Cleavage of CREBH in H2.35 cells under Tm treatment for various time periods. The H2.35 cells stably expressing flag-tagged CREBH were cultured in the absence or presence of Tm (5 μg/ml) for 4, 8 or 12 hours. Membrane fractions were isolated from the total cell lysates, and were subjected to Western blot analysis of CREBH and calnexin, respectively. Nuclear fractions were isolated from the same total cell lysates and subjected to Western blot analysis of CREBH and PARP, respectively. (D) Translocation of CREBH in COS7 cells. COS7 cells were co-transfected with a construct expressing flag-tagged full-length CREBH (CREBH-F) or CREBH-ΔC and a construct expressing KDEL-RFP, and were then cultured in the absence or presence of Tm (5 μg/ml) for 4 hours. Cells were then stained with FITC-conjugated anti-flag antibody and subjected to Zeiss Confocal Microscope analysis. Magnification: 40×10.
For analysis of expression and cleavage of CREBH protein, total cell lysates were prepared from H2.35 cells or COS7 cells using Nonidet P-40 lysis buffer (1% NP-40, 50 mM Tris-HCl at pH 7.5, 150 mM NaCl, 0.05% SDS) supplemented with protease inhibitors (Complete Mini from Roche Applied Science), 0.1 mM sodium vanadate, and 1 mM sodium fluoride. Membrane and nuclear fractions of cell lysates were isolated as previously described (Dignam et al., 1983). The total cell lysate, membrane and nuclear fractions were subjected to SDS-PAGE and then analyzed by Western blot using anti-flag monoclonal antibody or other antibodies. Immunoprecipitation and Western blot analyses of ATF6 and CREBH interaction in 293T cells expressing flag-tagged CREBH protein were performed by using anti-human ATF6 and anti-flag antibodies. Total cell lysates from 293T cells transfected with control vector or pFlag-CREBH-ΔC were immunoprecipitated with anti-human ATF6 polyclonal antibody and anti-flag antibody, respectively. The immunoprecipitated cell lysates were then subjected to Western blotting by using anti-flag antibody to detect CREBH protein and using anti-human ATF6 antibody to detect ATF6 protein, respectively. The same total cell lysates were subjected to Western blotting by using anti-flag antibody to detect expression of CREBH protein in the transfected cells. For detecting endogenous CREBH protein in the liver extracts, an anti-mouse CREBH polyclonal antibody was raised in rabbits against a purified mouse CREBH peptide composed of amino acids 92-109 [[…]]. The rabbit anti-human ATF6 polyclonal antibody was generated in the inventor's laboratory. The anti-mouse calnexin monoclonal antibody and the anti-mouse monoclonal PRAP antibody were purchased from Stressgen Biotechnologies (Victoria, BC, Canada) and BD Bioscience (Mountain View, Calif., USA), respectively.
In general terms: In western blotting, separated proteins are transferred to a membrane and probed.

For the substance tunicamycin [Tm], the “cleavage of CREBH to release a 50 kD N-terminal fragment” value (H2.35 cells stably expressing flag-tagged human CREBH, 8 hours, BFA 0.5 μg/ml, TNFα 20 ng/ml, IL6 40 ng/ml, DTT 5 mM, Tg 0.5 μM, Tm 5 μg/ml) was “significantly induced cleavage of CREBH”. For the same substance, for the setting “Tm 5 μg/ml for 4, 8 or 12 hours”, the “amount of 50 kD N-terminal cleaved CREBH fragment in the nuclear fraction” value is “gradually increased with increasing times of Tm treatment”.
